Each structure is given as a SMILES string. pIC50: −log10 of the molar value.

The values below come from patent EP4768484A1, “HETEROCYCLIC FUSED RING COMPOUND, AND COMPOSITION AND USE THEREOF” (Shenzhen TargetRx, Inc., priority 2023, dated 2025).

Common to all, as to type: cell-based
One assay addresses T1, Ba/F3 BCR-ABL1 T315I (Homo sapiens, UniProt P00519+P11274, T315I).
T1 construct: BCR (N-terminal fusion partner of the oncoprotein); expressed in transfected cells; host or cells: Ba/F3 (lentiviral transduction, monoclonal line)
The assay can be described thus: Cell growth inhibitory activity assay (CellTiter-Glo), Ba/F3 BCR-ABL1 T315I cells. The conditions noted are these: 72 h, CTG cell viability. The method, then: (§1) In this assay, the Celltiter-Glo (CTG) kit provided by Promega was used, and it is a homogeneous cell viability assay method. The cell viability of cultured cells was measured by quantifying ATP. K562 cells were purchased from Nanjing Kebai, product number CBP60529; Ba/F3 parental cells were purchased from RIKEN BRC, product number RCB0805; other cells containing BCR-ABL1 WT, BCR-ABL1 T315I, BCR-ABL1 T315M, BCR-ABL1 Y253H/E255K, BCR-ABL1 E255V/T3151, BCR-ABL1 A424T, BCR-ABL1 A337V, BCR-ABL1 P465S, BCR-ABL1 V468F, and BCR-ABL1 I502L were all monoclonal engineered cell lines obtained by transducting Ba/F3 parental cells with the lentivirus plasmids containing WT or corresponding mutated BCR-ABL1.
(§2) The steps of cell viability assay are as follows: • a) Cells in logarithmic growth phase were collected. Cell suspension was prepared and the cells were counted. Concentration of the cells was calculated. • b) The cell suspension was diluted to the required concentration and then added to the middle wells of a 96-well plate, and PBS was added to the edge wells. The wells with no cells and only culture medium were used as blank controls. • c) In addition to the cell plate used for compound analysis, another 96-well plate was prepared as a T0 plate, and 3-6 blank wells and 3-6 cell wells were added. The next day, CTG was used to test the cell viability as the T0 viability value of the cells. • d) The cell plate was incubated at 37 °C in a 5% CO2 incubator overnight. • e) The next day, each concentration of a compound subjected to a gradient dilution was added, and the cell plate was incubated at 37 °C in a 5% CO2 incubator for 72 h. The wells with no compound and only 0.5% DMSO were used as positive controls for cell growth. • f) CTG reagent (CellTiter-Glo kit) was added according to the manufacturer's instructions to test the cell viability value. • g) The plate was read using Biotek cytation3.0 microplate reader and the data were exported. • h) IC50 was calculated using GraphPad Prism 7.0 software.
(§3) The IC50 (half-maximal inhibitory concentration) of the compound was obtained using the following nonlinear fitting formula: Y = Bottom + (Top−Bottom)/(1+10^(∧)((LogIC50−X)*HillSlope)) [formula] • X: Log value of the compound concentration • Y: Inhibition rate (% inhibition) • Top: Maximum response • Bottom: Baseline response • HillSlope: Slope of the curve
(§4) The formula for calculating cell inhibition rate (inhibition rate %) was: [formula]

For the next assay, the system named is Ba/F3 parental cells. The assay can be described thus: Cell growth inhibitory activity assay (CellTiter-Glo), Ba/F3 parental cells. Conditions: Mus musculus, BaF3, 72 h, CTG cell viability, read-out: IC50 Ba/F3 BCR-ABL1 Parental. The method, then: as §1, §2, §3, §4
Background: ATP-based viability assays read luminescence as a measure of living cells.

The next assay has as its target T2, Ba/F3 BCR-ABL1 WT (Homo sapiens, UniProt P00519+P11274).
T2 construct: BCR (N-terminal fusion partner of the oncoprotein); expressed in transfected cells; host or cells: Ba/F3 (lentiviral transduction, monoclonal line)
The experiment in a line: Cell growth inhibitory activity assay (CellTiter-Glo), Ba/F3 BCR-ABL1 WT cells. Conditions: 72 h, CTG cell viability. The method, then: as §1, §2, §3, §4

The subject of the next assay is K562 cells. The assay can be described thus: Cell growth inhibitory activity assay (CellTiter-Glo), K562 cells. The conditions noted are these: Homo sapiens, 72 h, CTG cell viability. The method, then:
as §1, §2, §3, §4

With `CC(=O)NC1CCC2c3cc(C(=O)Nc4ccc(OC(F)(F)Cl)cc4)cc(-c4cnccn4)c3N(C(C)C)C12` (racemic) [T-12, 3-acetamido-N-(4-(chlorodifluoromethoxy)phenyl)-4-isopropyl-5-(pyrazin-2-yl)-1,2,3,3a,4,8b-hexahydrocyclopenta[b]indole-7-carboxamide], the pIC50 against Ba/F3 BCR-ABL1 T315I was 6.00 to 7.30; in the assay on Ba/F3 parental cells it was less than 6.00; at Ba/F3 BCR-ABL1 WT it was 7.30 to 8.30; in the assay on K562 cells it was 7.30 to 8.30.

`O=C(Nc1ccc(OC(F)(F)Cl)cc1)c1cnc(N2CC[C@@H](F)C2)c(-c2cnc3c(c2)-c2n[nH]cc2C3)c1` [T-1, (R)-N-(4-(chlorodifluoromethoxy)phenyl)-5-(2,4-dihydropyrazolo[3',4':3,4]cyclopenta[1,2-b]pyridin-7-yl)-6-(3-fluoropyrrolidin-1-yl)nicotinamide]: the pIC50 against Ba/F3 BCR-ABL1 T315I was no less than 8.30; in the assay on Ba/F3 parental cells it was less than 6.00; at Ba/F3 BCR-ABL1 WT, no less than 8.30; in the assay with K562 cells it was no less than 8.30.

Regarding `O=C(Nc1ccc(OC(F)(F)Cl)cc1)c1cnc(N2CC[C@@H](F)C2)c(-c2cnc3c(c2)-c2nn(-c4ncccn4)cc2C3)c1` [T-5, (R)-N-(4-(chlorodifluoromethoxy)phenyl)-6-(3-fluoropvrrolidin-1-yl)-5-(2-(pyrimidin-2-yl)-2,4-dihydropyrazolo[3',4':3,4]cyclopenta[1,2-b]pyridin-7-yl)nicotinamide], the pIC50 was no less than 8.30 against Ba/F3 BCR-ABL1 T315I, less than 6.00 in the assay on Ba/F3 parental cells, no less than 8.30 on Ba/F3 BCR-ABL1 WT and no less than 8.30 with K562 cells.

In the case of `O=C(Nc1ccc(OC(F)(F)Cl)cc1)c1cnc(N2CC[C@@H](F)C2)c(-c2cnc3c(c2)-c2nn(-c4ncc(F)cn4)cc2C3)c1` [T-6-A, (R)-N-(4-(chlorodifluoromethoxy)phenyl)-5-(2-(5-fluoropyrimidin-2-yl)-2,4-dihydropyrazolo[3',4':3,4]cyclopenta[1,2-b]pyridin-7-yl)-6-(3-fluoropyrrolidin-1-yl)nicotinamide], the pIC50 was no less than 8.30 against Ba/F3 BCR-ABL1 T315I, less than 6.00 in the assay on Ba/F3 parental cells, no less than 8.30 against Ba/F3 BCR-ABL1 WT and no less than 8.30 in the assay with K562 cells.

As to `C[C@@H]1COCc2nc3cc(C(=O)Nc4ccc(OC(F)(F)Cl)cc4)cc(-c4cnc5c(c4)-c4nn(C(F)F)cc4C5)c3n21` [T-51, (R)-N-(4-(chlorodifluoromethoxy)phenyl)-6-(2-(difluoromethyl)-2,4-dihydropyrazolo[3',4':3,4]cyclopenta[1,2-b]pyridin-7-yl)-4-methyl-3,4-dihydro-1H-benzo[4,5]imidazo[2,1-c][1,4]oxazine-8-carboxamide], the pIC50 was less than 6.00 in the assay with Ba/F3 parental cells, 7.30 to 8.30 against Ba/F3 BCR-ABL1 WT and no less than 8.30 in the assay with K562 cells.

In the case of `[2H]C1([2H])c2cn(-c3ncccn3)nc2-c2cc(-c3cc(C(=O)Nc4ccc(OC(F)(F)Cl)cc4)cc4nc5n(c34)[C@H](C)COC5)cnc21` [T-105, (R)-N-(4-(chlorodifluoromethoxy)phenyl)-4-methyl-6-(2-(pyrimidin-2-yl)-2,4-dihydropyrazolo[3',4':3,4]cyclopenta[1,2-b]pyridin-7-yl-4,4-d2)-3,4-dihydro-1H-benzo[4,5]imidazo[2,1-c][1,4]oxazine-8-carboxamide], the pIC50 on Ba/F3 BCR-ABL1 T315I, against Ba/F3 BCR-ABL1 WT and with K562 cells was no less than 8.30 throughout.

On to `C[C@@H]1COCc2nc3cc(C(=O)Nc4ccc(OC(F)(F)Cl)cc4)cc(-c4cnc5c(c4)-c4nn(-c6ncccn6)cc4C5O)c3n21` (stereo partly drawn) [T-106, (4R)-N-(4-(chlorodifluoromethoxy)phenyl)-6-(4-hydroxy-2-(pyrimidin-2-yl)-2,4-dihydropyrazolo[3',4':3,4]cyclopenta[1,2-b]pyridin-7-yl)-4-methyl-3,4-dihydro-1H-benzo[4,5]imidazo[2,1-c][1,4]oxazine-8-carboxamide], for which the pIC50 against Ba/F3 BCR-ABL1 T315I, at Ba/F3 BCR-ABL1 WT and in the assay with K562 cells was no less than 8.30 in each case.

In the case of `C[C@@H]1COCc2nc3cc(C(=O)Nc4ccc(OC(F)(F)Cl)cc4)cc(-c4cnc5c(c4)-c4nn(-c6ncccn6)cc4C5F)c3n21` (stereo partly drawn) [T-107, (4R)-N-(4-(chlorodifluoromethoxy)phenyl)-6-(4-fluoro-2-(pyrimidin-2-yl)-2,4-dihydropyrazolo[3',4':3,4]cyclopenta[1,2-b]pyridin-7-yl)-4-methyl-3,4-dihydro-1H-benzo[4,5]imidazo[2,1-c][1,4]oxazine-8-carboxamide], the pIC50 on Ba/F3 BCR-ABL1 T315I, at Ba/F3 BCR-ABL1 WT and with K562 cells was no less than 8.30 each time.

As for `Cn1ccc(-c2ccnc(-n3cc4c(n3)-c3cc(-c5cc(C(=O)Nc6ccc(OC(F)(F)Cl)cc6)cc6c5C5(CCCCC5)C(=O)N6)cnc3C4)n2)n1` [T-138, N-(4-(chlorodifluoromethoxy)phenyl)-4'-(2-(4-(1-methyl-1H-pyrazol-3-yl)pyrimidin-2-yl)-2,4-dihydropyrazolo[3',4':3,4]cyclopenta[1,2-b]pyridin-7-yl)-2'-oxospiro[cyclohexane-1,3'-indoline]-6'-carboxamide], the pIC50 on Ba/F3 BCR-ABL1 T315I, against Ba/F3 BCR-ABL1 WT and in the assay with K562 cells was no less than 8.30 in each case.

With `O=C(Nc1ccc(OC(F)(F)Cl)cc1)c1cc2c(c(-c3cnc4c(c3)-c3nn(-c5nccc(-c6ccc(F)nc6)n5)cc3C4)c1)C1(CCCCC1)C(=O)N2` [T-139, N-(4-(chlorodifluoromethoxy)phenyl)-4'-(2-(4-(6-fluoropyridin-3-yl)pyrimidin-2-yl)-2,4-dihydropyrazolo[3',4':3,4]cyclopenta[1,2-b]pyridin-7-yl)-2'-oxospiro[cyclohexane-1,3'-indoline]-6'-carboxamide], the pIC50 at Ba/F3 BCR-ABL1 T315I, at Ba/F3 BCR-ABL1 WT and in the assay on K562 cells was no less than 8.30 throughout.

`O=C(Nc1ccc(OC(F)(F)Cl)cc1)c1cc2c(c(-c3cnc4c(c3)-c3nn(-c5nccc(-c6cncc(F)c6)n5)cc3C4)c1)C1(CCCCC1)C(=O)N2` [T-140, N-(4-(chlorodifluoromethoxy)phenyl)-4'-(2-(4-(5-fluoropyridin-3-yl)pyrimidin-2-yl)-2,4-dihydropyrazolo[3',4':3,4]cyclopenta[1,2-b]pyridin-7-yl)-2'-oxospiro[cyclohexane-1,3'-indoline]-6'-carboxamide]: the pIC50 on Ba/F3 BCR-ABL1 T315I, on Ba/F3 BCR-ABL1 WT and in the assay on K562 cells was no less than 8.30 in each case.

As to `O=C(Nc1ccc(OC(F)(F)Cl)cc1)c1cnc(N2CC[C@@H](F)C2)c(-c2cnc3c(c2)-c2nn(-c4nccc(-c5ccc(F)nc5)n4)cc2C3)c1` [T-141, (R)-N-(4-(chlorodifluoromethoxy)phenyl)-5-(2-(4-(6-fluoropyridin-3-yl)pyrimidin-2-yl)-2,4-dihydropyrazolo[3',4':3,4]cyclopenta[1,2-b]pyridin-7-yl)-6-(3--fluoropyrrolidin-1-yl)nicotinamide], the pIC50 on Ba/F3 BCR-ABL1 T315I, against Ba/F3 BCR-ABL1 WT and in the assay with K562 cells was no less than 8.30 in each case.

In the case of `O=C(Nc1ccc(OC(F)(F)Cl)cc1)c1cnc(N2CC[C@@H](F)C2)c(-c2cnc3c(c2)-c2nn(-c4nccc(-c5cncc(F)c5)n4)cc2C3)c1` [T-142, (R)-N-(4-(chlorodifluoromethoxy)phenyl)-5-(2-(4-(5-fluoropyridin-3-yl)pyrimidin-2-yl)-2,4-dihydropyrazolo[3',4':3,4]cyclopenta[1,2-b]pyridin-7-yl)-6-(3-fluoropyrrolidin-1-yl)nicotinamide], the pIC50 against Ba/F3 BCR-ABL1 T315I, against Ba/F3 BCR-ABL1 WT and in the assay on K562 cells was no less than 8.30 each time.
